Experimental data from a melting point compilation (Tetko et al.; mined from patent text by program, amines drawn as free bases though some values may be those of a salt).

Row | melting point [°C] | Compound
1 | 96 to 97 | O=C(NCCc1ccc([N+](=O)[O-])cc1)C(F)(F)F
2 | 238 to 242 | COc1ccc(-c2nnc(O)nc2-c2ccc(OC)cc2)cc1
3 | 176 to 178 | NC(=O)COC(=O)NCCC[C@H]1OC[C@H](c2ccc(Cl)c3ccccc32)CO1
4 | 64 to 66 | CC(C)C(NC(=O)c1ccc(C(=O)NCC(=O)OCc2ccccc2)cc1)C(=O)N(CC(=O)NC(C(=O)C(F)(F)F)C(C)C)C1Cc2ccccc2C1 (mixture of isomers)
5 | 146 | Clc1ccc(-c2ncn(CC3CC3)c2-c2ccncc2)cc1Cl
6 | 144 to 149 | CC(C)c1ccc(C(=O)Cc2ccccc2C(F)(F)F)c(C(C)C)c1OS(N)(=O)=O
7 | 184 | Cc1cc(SCc2sc(-c3ccc(C(F)(F)F)cc3)nc2C)c2c(c1OCC(=O)O)CCC2
8 | 212 | COC(=O)c1ccc(OC)c2c1OCCCO2
9 | 117 to 120 | COC(=O)c1ccc(OC)cc1OC(=S)N(C)C
10 | 112 to 113 | COC(=O)COc1ccc(C(C)CNS(=O)(=O)c2ccccc2)cc1F (stereo not given)
11 | 170 to 172 | NC(=O)[C@H]1CCc2[nH]c3ccc(F)cc3c2C1
12 | 56 to 58 | CCCCCCCCCCCCCCCCCC(=O)NCCOC(=O)C1=CC(C(C)(C)C)C(O)(C(C)(C)C)C=C1 (stereo not given)
13 | 109 to 111 | COc1ccc(-c2nn(CC=Cc3ccc(Cl)cc3)c(=O)cc2-c2ccc(OC)c(F)c2)cc1
14 | 165 to 170 | COC(=O)Nc1ccccc1-c1c(C(=O)OC)c2cc(OC)c(OC)cc2c(=O)n1C
15 | 231 to 233 | CNN(NC)C(=O)Nc1cccc2c1C(=O)c1c-2n[nH]c1C(C)C
16 | 246 | CNNc1ccc(-c2ccc3c(=O)c(C(=O)O)cn(C4CC4)c3c2C)cn1
17 | 275 | COC(=O)C1=C(C)NC2=C(C(=O)OC2)C1c1cccc2nc(-c3ccccc3)sc12 (stereo not given)
18 | 113 | CCN(CC)C(=O)C=Cc1ccc(-c2ccccc2)cc1
19 | 105 to 107 | CN(C)c1c(C#N)c(C(F)(F)F)nn1-c1c(Cl)cc(C(F)(F)F)cc1Cl
20 | 149 to 151 | CCCCc1nc2cccc(C(=O)OC)c2n1Cc1ccc(-c2ccccc2N2CC(=O)NC2=O)cc1
21 | 232 to 233 | CN1C(=N)N(C)C(=Cc2c[nH]c3ccccc23)C1=O
22 | 179 | OC1CSC(Oc2cccc(-c3cccnc3)n2)C(O)C1O (stereo not given)
23 | 64 to 65 | NNc1ncccc1-c1ccccn1

Row | melting point [°C] | Compound
24 | 67 to 68 | Cc1nc2cc(C(F)(F)F)ccc2n1-c1ccc(OC(C)CCC(=O)O)cc1 (stereo not given)
25 | 81 to 85 | CC(Cc1c[nH]c2ccccc12)(NS(=O)(=O)CC12CCC(CC1=O)C2(C)C)C(=O)NC(CO)Cc1ccccc1 (stereo not given)
26 | 82.3 to 82.4 | COCCOc1ccc(CCCOC(=O)N2CCOCC2)c(Oc2ncc(C(F)(F)F)cc2Cl)c1
27 | 96 to 98 | COc1cc(/C=C/C(=O)Nc2ccccc2C(=O)O)ccc1OC1CCCC1
28 | 179 to 180 | O=C(NC(Cc1ccccc1)C(=O)O)c1ccc2cc(Oc3ccccc3)ccc2c1 (stereo not given)
29 | 226 to 229 | CCCc1nn(C)c2c(=O)[nH]c(Cc3ccc(S(=O)(=O)N[C@@H](CO)C(N)=O)cc3)nc12
30 | 291 to 293 | CCCC1(CCC)c2cc(-c3nc4cc(C)ccc4o3)ccc2-c2cc(O)c(-c3nc4cc(C)ccc4o3)cc21
31 | 129 to 130 | N[C@@H](CO)[C@@H](O)[C@H](O)[C@H](O)CO
32 | 124 to 126 | Cc1nn(C2CCCC2C)c(N)c1C(N)=O (stereo not given)
33 | 76 to 79 | CCSc1nnnn1-c1ccc(Cl)cc1F
34 | 210 to 212 | Cc1cc2c(cc1CN1CCN(C)CC1)-c1[nH]nc(-c3ccsc3)c1C2
35 | 91 to 92 | CCS(=O)(=O)N(Cc1cccnc1)c1ccc(F)cc1F
36 | 85 | CCCCCCCCCCCCCCCCC1CC(=O)N(NC(=O)CCc2cc(C(C)(C)C)c(O)c(C(C)(C)C)c2)C1=O (stereo not given)
37 | 232 to 233 | CC1(C)Oc2ccc(C#N)cc2C(Oc2ccc(O)nn2)C1O (stereo not given)
38 | 217 to 218 | CN1C(=O)N(CC(COc2ccc(-c3ccncc3)cc2)N(O)C=O)C(=O)C1(C)C (stereo not given)
39 | 224 to 226 | Cc1ccccc1-c1cnc2c(C(F)(F)F)cccc2c1-c1cccc(NC(=O)Nc2ccccc2Cl)c1
40 | 216 to 218 | COc1cc2nc(N3CCOCC3)n3cnnc3c2cc1OC
41 | 241 to 242 | Cc1c(Cc2cc(Cl)cc(Cl)c2)c(C(=O)O)nn1CCO
42 | 145 to 148 | CNc1cc(S(=O)(=O)c2ccccc2)cc(Br)n1
43 | 134 to 136 | CCN1C(=O)N(c2cc(OC)cc(OC)c2)Cc2cnc(SC)nc21
44 | 225 to 226 | CC(C)(C)OC(=O)N1CCCN(c2nc3ccccc3[nH]2)CC1
45 | 126 to 127 | CC(C)N1CCC(COc2ncc(C(=O)c3ccc(Cl)cc3)n2C)CC1
46 | 87 to 95 | Nc1ccc(S(=O)(=O)Nc2ccn(CC3CC3)c(=O)n2)cc1

Row | melting point [°C] | Compound
47 | 265 to 266 | Cc1cc(C)c([N+](=O)[O-])c(C)c1-c1n[nH]c2c(C#N)c(C(C)(C)C)nn12
48 | 216 | CN(C(=O)c1cn2cc(-c3ccc(Cl)cc3)ccc2n1)C(Cc1ccc(OCc2ccccc2)cc1)C(=O)O (stereo not given)
49 | 76 | COc1ccc2c(c1)C(=O)C(=CCC(=O)OC(C)(C)C)CC2
50 | 194 to 196 | O=C1CN(c2c(F)cc(N3C[C@H](CNC(=S)Nc4ccccn4)OC3=O)cc2F)CN1
51 | 96 to 100 | COc1ccc(C(O)Cc2ccncc2)c2c1OCC2C (stereo not given)
52 | 110 | CN=C(Cc1ccccc1)N1CC2C(=O)CCC(c3ccccc3)(c3ccccc3)C2C1 (stereo not given)
53 | 99 to 102 | CCCCCCCCCCCCCCCCCCCCCCOc1ccc(C(=O)O)cc1
54 | 84 | Cc1cc2c(c(C(=O)c3ccccc3)c1)NCC2
55 | 157 to 158 | CCOC(=O)c1ccc(-c2nc(COc3ccc(CCl)cc3OCC)c(C)o2)s1
56 | 68 to 69 | CCCCCCCCCCCCCCOc1ccc(CC(=O)O)cc1Cl
57 | 255 to 256 | CS(=O)(=O)c1ccc(-c2cn[nH]c(=O)c2-c2ccc(F)cc2)cc1
58 | 225 to 228 | C=C(C)c1cc(O)cc2nc(-c3ccc(O)cc3)oc12
59 | 131 to 132 | COc1cc2cc(-c3cccnc3)cnc2cc1OC
60 | 125 to 126 | ON=Cc1cc(Cl)ccc1O
61 | 71 to 72 | OCc1cncc(-c2ccccc2)c1
62 | 176 to 177 | COc1cc2c(cc1OC)C(C=NO)c1ccccc1CC2 (stereo not given)
63 | 121 to 122 | CCCCCCCCCC(=O)Nc1ccc(S(=O)(=O)Nc2nnc(CC)s2)cc1
64 | 31 to 32 | CCCCCCCCCCCCSCCC(=O)OC(CSCCCCCCCCCCCC)CSCCCCCCCCCCCC
65 | 120 to 122 | CNCc1noc(-c2cc(C(C)(C)C)c(O)c(C(C)(C)C)c2)n1
66 | 135 to 137 | Cc1ccccc1-c1ccc(Cl)cc1C(=O)O
67 | 72 to 80 | COC(=O)c1ccc2c(c1)C(CNC(=O)OC(C)(C)C)CCC2 (stereo not given)

Row | Compound | melting point [°C]
68 | CCNS(=O)(=O)/C=C/c1ccc2[nH]cc(C3CCN(Cc4ccccc4)CC3)c2c1 | 178 to 180
69 | C1=C(c2ccc3c(c2)OCCO3)CCN(CCc2cccc3ccccc23)C1 | 170 to 180
70 | C=Cn1cc(C(=O)O)c(=O)c2c(C)c(F)c(N3CCNCC3)c(F)c21 | 222 to 225
